Source: patent EP0496162A2, “Peptide inhibitors of RAS-GAP interaction” (MERCK & CO. INC., priority 1990, dated 1992)
Non-standard residues stand in square brackets, D forms with d. Residues, ends and D or L forms follow the SMILES beside them. No end group written: not given here.

Columns and labels:
Ras-GAP interaction = target: T1, Ras-GAP interaction (Bos taurus, UniProt P09851); test: Ras-GAP interaction inhibition assay (GAP-stimulated Ras GTPase, charcoal adsorption); type: biochemical, bovine; details: concentration of peptide required to reduce GAP stimulated Ras-GTP hydrolysis by 50%; 10 fmol GAP, 240 fmol Ha ras p21-GTP, 4 minutes at 24°C
T1 construct: made in house; host or cells: GAP: E. coli JM109 (plasmid pYO); Ha-Ras: E. coli RRllaci^q (plasmid pRas[Gly12 Ala59])
T1 sequence (P09851 1-1044): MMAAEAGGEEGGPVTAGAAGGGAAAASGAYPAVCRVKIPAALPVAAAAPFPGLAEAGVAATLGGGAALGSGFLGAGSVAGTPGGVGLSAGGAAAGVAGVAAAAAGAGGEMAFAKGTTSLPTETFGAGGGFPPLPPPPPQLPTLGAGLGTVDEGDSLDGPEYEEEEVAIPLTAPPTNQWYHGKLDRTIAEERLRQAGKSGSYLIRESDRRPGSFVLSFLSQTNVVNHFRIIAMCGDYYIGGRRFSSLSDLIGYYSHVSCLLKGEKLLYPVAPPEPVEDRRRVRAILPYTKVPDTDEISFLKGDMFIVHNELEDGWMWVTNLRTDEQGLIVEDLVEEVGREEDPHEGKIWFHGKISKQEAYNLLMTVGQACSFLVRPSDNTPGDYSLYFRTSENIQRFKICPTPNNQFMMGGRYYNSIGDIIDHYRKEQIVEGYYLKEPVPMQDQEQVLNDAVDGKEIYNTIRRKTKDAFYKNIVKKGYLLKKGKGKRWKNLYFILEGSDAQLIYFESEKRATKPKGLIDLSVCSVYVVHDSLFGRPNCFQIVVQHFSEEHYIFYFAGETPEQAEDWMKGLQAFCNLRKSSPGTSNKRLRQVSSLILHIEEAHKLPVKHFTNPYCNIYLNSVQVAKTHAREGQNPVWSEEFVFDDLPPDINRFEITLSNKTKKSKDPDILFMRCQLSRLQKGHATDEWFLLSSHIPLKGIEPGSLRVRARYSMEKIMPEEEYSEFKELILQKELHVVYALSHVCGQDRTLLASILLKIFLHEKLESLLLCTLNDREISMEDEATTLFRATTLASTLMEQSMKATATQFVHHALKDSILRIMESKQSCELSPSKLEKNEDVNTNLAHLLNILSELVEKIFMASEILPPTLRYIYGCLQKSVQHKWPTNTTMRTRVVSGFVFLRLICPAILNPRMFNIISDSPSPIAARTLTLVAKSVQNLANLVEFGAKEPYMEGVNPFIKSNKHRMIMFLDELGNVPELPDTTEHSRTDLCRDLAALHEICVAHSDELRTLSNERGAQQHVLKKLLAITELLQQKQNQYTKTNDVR
Experimental: The activity of the synthetic peptides of the present invention, as inhibitors of the interaction of ras with GAP was determined in an assay which measures GAP dependent, Ras GTPase activity. Bovine GAP was either purified from fresh bovine brains or recombinantly produced in E. coli. It is understood that the methods of the present invention may utilize either the recombinant full length GAP or the bovine brain derived GAP. In addition, GAP from other species, such as human and mouse, may be substituted for bovine GAP since they share about 95% amino acid homology. Truncated recombinant forms of GAP are also suitable for use in the Ras-GAP interaction assay [Marshall, M.S., et al., (1989), EMBO J., 8, pp1105-1110]. However, for the screening of synthetic peptides for their ability to block the Ras-GAP interaction, the recombinant, full length GAP is preferred.
The Ras protein utilized in the Ras-GAP GTPase assay of the present invention is Harvey ras (Ha-ras). It is understood that other forms of Ras protein are suitable for use in the present invention. Other suitable forms of Ras protein include, but are not limited to, Kirsten Ras, yeast S. cerevisiae RAS, and N-Ras. Furthermore, it is readily apparent to those skilled in the art that any form of Ras protein which is capable of interacting with GAP is suitable for use in the Ras-GAP GTPase assay.
Ras GTPase activity was measured by the charcoal adsorption procedure. Each 50 µL reaction contained 10 fmol purified GAP, 240 fmol Ha ras p21-[γ ³²P] GTP and 1 mg/mL BSA in buffer D. Varying amounts of the competing peptides were added as indicated. Prewarmed reactions (24°C) were initiated by the addition of GAP, then incubated for 4 minutes at 24°C. The reactions were terminated by the addition of 5 volumes of ice cold 5% activated charcoal (Sigma: HCl washed) in 50 mM NaH₂PO₄. GTPase activity was quantitated by measuring the free ³²P-orthophosphate in the cleared supernatant after centrifugation of the charcoal mix. GAP-stimulated Ras GTPase activity in the absence of competitors was 40-60 fmol Ras-GTP hydrolyzed; the 100% control value. In the absence of GAP, GTP hydrolysis was not detectable during the incubation period of the assay. Inhibitors of this assay block GAP-stimulated Ras GTPase without impairing intrinsic Ras GTPase, assayed in the absence of GAP following incubation at 24°C for one hour.
(§1) Ras peptides were dissolved in either 100% dimethyl formamide (DMF, American Burdick and Jackson) or 100% dimethyl sulfoxide (DMSO, Fluka UV-spectroscopy grade) at a calculated peptide concentration of 1-4 mM. Following 1 minute in a Sonicor SC-200 bath sonicator at room temperature, the peptide solutions were vortexed, and then centrifuged for 5 minutes at room temperature in an Eppendorf microfuge to remove any undissolved material. 20 µL of the cleared peptide solutions were then added to 80 µL of Buffer D in a dilution series covering a range of peptide concentrations from 0.02 µM up to the maximum solubility limit for each peptide. In each dilution, the solvent concentration was maintained at 20%. These peptides solutions were then centrifuged for 5 minutes at room temperature at 10,000 x g, and the cleared supernatants were divided into 2 parts. One part of each cleared peptide dilution was used in a GAP competition assay: 40 µL was added to a 5 µL solution containing 0.1 mg/mL BSA plus 240 fmol Ha-ras p21-[γ-³²P]GTP. Reactions were initiated upon addition of 5 µL of diluted GAP (10 fmol), and analyzed as described above.

[1] = type: physicochemical
Experimental: as §1
The other portion of the cleared peptide solution was measured spectrophotometrically to determine solubility and concentration of the peptides. Extinction coefficients were determined by measuring the absorbance at 277 nm of 2 peptides whose exact concentrations were quantitated by amino acid analysis. The extinction coefficients for peptide Ras 17-37 dissolved in buffer D/20% DMF or peptide Ras 91-103 (SEQ ID NO:14)dissolved in water/20% DMSO, were 2580 cm⁻¹M⁻¹ and 2230 cm⁻¹ M⁻¹, respectively. These values were used to determine the exact concentration for each peptide used at each point in the competition assay. In addition, peptide solubility was confirmed by comparing the light scattering at 600 nm for each peptide solution measured before and after centrifugation. Only concentrations reflecting 100% solubility were used in the dose response curves, and the maximum concentration used for each peptide competitor indicates the limit of solubility for that peptide.

[2] = target: T2, S. cerevisiae adenylyl cyclase (Ras Dependent, strain FlD reconstituted with purified Ras) (Saccharomyces cerevisiae, UniProt P08678); test: Yeast adenylyl cyclase assay, reconstitution of FlD membranes with purified Ras protein; type: biochemical; details: part B, FlD membranes with 5 µM purified Ras protein, peptide 10 µM
T2 construct: Since these membranes contain adenylyl cyclase, but are lacking Ras protein; endogenous in cells; host or cells: membranes of S. cerevisiae strain FlD
Source text: Another Ras-dependent enzymatic assay was used to extend the observed ability of the peptides of the present invention to inhibit Ras function. This system, yeast adenylyl cyclase assay, measures the Ras-dependent conversion of ATP into cyclic AMP (cAMP). […] Furthermore, in S. cerevisiae, regulation of cAMP metabolism appears to be a major function of Ras. This assay system was used to extend the observed Ras inhibitory activity of the peptides of the present invention, to a Ras function which is GAP-unrelated. S. cerevisiae strain FlD lacks functional Ras proteins, however FlD cells have functional adenylyl cyclase in their cell membrane. […] Similarly, a recombinant S. cerevisiae strain MY1186, lacks yeast Ras proteins but expresses mammalian Ras protein which functions with adenylyl cyclase to regulate cAMP metabolisim in the yeast cells. […] In contrast, S. cerevisiae strain JC377-10B contains a mutant form of adenylyl cyclase which constitutively converts ATP into cAMP with or without Ras.
Ras peptides were tested at the indicated concentrations for inhibition of S. cerevisiae adenylyl cyclase activity. […] Ras-independent activity was assayed with membranes from strain JC377-10B (ras-minus, constitutively active adenylyl cyclase).
Yeast strain FlD, MY1186 and JC377-10B, were grown in YEHD medium at 30°C. Membrane fractions were prepared from cultures grown to an A₆₆₀ of 0.5 to 1.0 by glusulase digestion [Casperson, G.F. et al., (1983), J. Biol. Chem., 258, pp. 7911-7914], Dounce homogenization of the spheroplasts in buffer containing 50 mM sodium MES [2(N-morpholino) ethanesulfonic acid] […] Adenylyl cyclase assays (100-µL reaction volume) measured the conversion of [α-³²P]ATP to [³²P]cAMP at 30°C, using 50 µg to 100 µg of membrane protein in assays using membranes from yeast strains MY1186 and JC377-10B.. […] Since these membranes contain adenylyl cyclase, but are lacking Ras protein, stimulation of adenylyl cyclase activity may be measured following reconstitution with purified Ras complexed with GTP. […]

T2 sequence (P08678 whole entry): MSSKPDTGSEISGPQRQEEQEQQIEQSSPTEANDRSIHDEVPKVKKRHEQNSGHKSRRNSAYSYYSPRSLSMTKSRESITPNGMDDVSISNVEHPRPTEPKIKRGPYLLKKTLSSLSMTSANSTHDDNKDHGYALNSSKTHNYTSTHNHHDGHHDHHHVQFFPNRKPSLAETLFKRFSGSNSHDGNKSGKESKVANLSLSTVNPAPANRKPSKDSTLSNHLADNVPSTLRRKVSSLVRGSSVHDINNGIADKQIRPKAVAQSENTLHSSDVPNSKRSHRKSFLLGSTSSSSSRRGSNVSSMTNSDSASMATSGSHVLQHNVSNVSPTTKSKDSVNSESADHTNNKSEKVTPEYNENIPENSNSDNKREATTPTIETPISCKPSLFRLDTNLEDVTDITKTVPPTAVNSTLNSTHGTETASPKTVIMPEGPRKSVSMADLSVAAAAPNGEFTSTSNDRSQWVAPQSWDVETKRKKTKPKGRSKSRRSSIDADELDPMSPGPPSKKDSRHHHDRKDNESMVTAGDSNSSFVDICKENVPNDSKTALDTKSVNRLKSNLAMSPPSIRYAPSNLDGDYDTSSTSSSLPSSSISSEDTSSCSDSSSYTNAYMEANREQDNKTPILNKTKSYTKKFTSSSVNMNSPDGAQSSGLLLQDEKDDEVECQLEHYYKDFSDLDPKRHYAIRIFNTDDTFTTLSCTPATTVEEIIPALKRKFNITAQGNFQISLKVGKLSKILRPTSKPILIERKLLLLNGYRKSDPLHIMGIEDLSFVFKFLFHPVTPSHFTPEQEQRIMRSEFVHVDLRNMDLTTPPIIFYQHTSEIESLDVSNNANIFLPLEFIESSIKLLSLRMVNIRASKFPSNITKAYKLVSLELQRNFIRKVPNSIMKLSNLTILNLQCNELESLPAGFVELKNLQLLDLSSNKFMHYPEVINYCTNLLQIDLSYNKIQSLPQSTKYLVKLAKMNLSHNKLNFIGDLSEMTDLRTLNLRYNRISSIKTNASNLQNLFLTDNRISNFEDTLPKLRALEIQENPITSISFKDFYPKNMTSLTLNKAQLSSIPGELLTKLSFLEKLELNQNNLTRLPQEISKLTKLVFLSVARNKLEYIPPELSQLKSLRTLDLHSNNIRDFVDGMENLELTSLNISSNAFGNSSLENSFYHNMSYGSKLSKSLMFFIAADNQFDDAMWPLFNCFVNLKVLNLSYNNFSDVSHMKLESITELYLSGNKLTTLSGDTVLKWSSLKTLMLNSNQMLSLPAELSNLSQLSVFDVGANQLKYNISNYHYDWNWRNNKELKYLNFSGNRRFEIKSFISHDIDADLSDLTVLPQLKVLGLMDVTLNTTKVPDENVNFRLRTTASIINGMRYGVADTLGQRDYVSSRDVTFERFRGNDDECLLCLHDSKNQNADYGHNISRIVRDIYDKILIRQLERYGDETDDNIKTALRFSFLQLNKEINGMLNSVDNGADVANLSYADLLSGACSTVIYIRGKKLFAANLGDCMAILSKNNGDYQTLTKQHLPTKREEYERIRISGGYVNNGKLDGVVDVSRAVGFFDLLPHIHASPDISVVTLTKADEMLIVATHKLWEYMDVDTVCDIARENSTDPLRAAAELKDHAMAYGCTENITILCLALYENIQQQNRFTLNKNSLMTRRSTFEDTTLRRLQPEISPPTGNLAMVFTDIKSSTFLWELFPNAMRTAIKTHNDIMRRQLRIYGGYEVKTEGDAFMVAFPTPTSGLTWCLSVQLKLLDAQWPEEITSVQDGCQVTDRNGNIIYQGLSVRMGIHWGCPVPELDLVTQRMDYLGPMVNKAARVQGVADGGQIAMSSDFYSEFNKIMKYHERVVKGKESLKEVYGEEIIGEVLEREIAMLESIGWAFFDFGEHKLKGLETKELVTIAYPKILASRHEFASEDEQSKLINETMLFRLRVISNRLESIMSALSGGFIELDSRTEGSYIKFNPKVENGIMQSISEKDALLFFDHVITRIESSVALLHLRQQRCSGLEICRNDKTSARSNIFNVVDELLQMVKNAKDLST

Molecule | IC50* (Ras-GAP interaction) | Maximum Solubility [1] [µM] | IC50 (Ras-GAP interaction) [µM] | %Inhibition of Adenylyl Cyclase Activity Ras Dependent [2] [%]
EYDPTIEDSYRKQ [Ras 31-43] | no inhibition | 446 | – | –
CC[C@H](C)[C@H](NC(=O)[C@H](CC(C)C)NC(=O)[C@H](CCC(N)=O)NC(=O)[C@@H](NC(=O)[C@@H](NC(=O)[C@H](CC(C)C)NC(=O)[C@H](C)NC(=O)[C@@H](N)CO)[C@@H](C)O)[C@@H](C)CC)C(=O)N[C@@H](CCC(N)=O)C(=O)N[C@@H](CC(N)=O)C(=O)O [Ras 17-26] | no inhibition | 600 | – | –
MRTRVVSGFVFLRLIGPAILNPR [GAP 888-910(Gly903)] | – | 800 | – | –
IQLIQNHFVDEY [Ras 21-32] | – | 120 | 70 | –
LTIQIQNHFVDE [Ras 19-31(1)] | – | >1000 | 36 | –
TIQLIQNHFVDEY [Ras 20-32] | – | 110 | 18 | –
CC[C@H](C)[C@H](NC(=O)[C@H](CC(C)C)NC(=O)[C@H](CCC(N)=O)NC(=O)[C@@H](NC(=O)[C@@H](NC(=O)[C@H](CC(C)C)NC(=O)[C@H](C)NC(=O)[C@@H](N)CO)[C@@H](C)O)[C@@H](C)CC)C(=O)N[C@@H](CCC(N)=O)C(=O)N[C@@H](CC(N)=O)C(=O)N[C@@H](Cc1c[nH]cn1)C(=O)N[C@@H](Cc1ccccc1)C(=O)N[C@H](C(=O)N[C@@H](CC(=O)O)C(=O)N[C@@H](CCC(=O)O)C(=O)N[C@@H](Cc1ccc(O)cc1)C(=O)N[C@@H](CC(=O)O)C(=O)N1CCC[C@H]1C(=O)N[C@H](C(=O)N[C@H](C(=O)N[C@@H](CCC(=O)O)C(=O)N[C@@H](CC(=O)O)C(=O)N[C@@H](CO)C(=O)N[C@@H](Cc1ccc(O)cc1)C(=O)N[C@@H](CCCNC(=N)N)C(=O)N[C@@H](CCCCN)C(=O)N[C@@H](CCC(N)=O)C(=O)N[C@H](C(=O)O)C(C)C)[C@@H](C)CC)[C@@H](C)O)C(C)C [Ras 17-44] | – | 200 | 2.4 | –
EELTIQLIQNHFVDEYD-NH2 [Ras 19-33(3)] | – | 225 | 50 | –
LTIQLIQNHFVDEYD [Ras 19-33] | – | 23 | 1.4 | –
NHFVDEY [Ras 26-32] | – | 800 | 350 | –
LTIQLIQNHFVDEY [Ras 19-32] | – | 48 | 0.4 | –
GQEEYSAMRDQYMRTGE [Ras 60-76, reference compound] | – | – | – | 6 ± 1
LTIQLIQNHFVDE [Ras 19-31] | – | >1000 | 48 | –
N[C@@H](CC(=O)O)C(=O)N[C@@H](CCC(=O)O)C(=O)N[C@@H](Cc1ccc(O)cc1)C(=O)O [Ras 30-32] (H-Asp-Glu-Tyr-OH) | no inhibition | 800 | – | –
CC[C@H](C)[C@H](NC(=O)[C@H](CC(C)C)NC(=O)[C@H](CCC(N)=O)NC(=O)[C@@H](NC(=O)[C@@H](NC(=O)[C@@H](N)CC(C)C)[C@@H](C)O)[C@@H](C)CC)C(=O)N[C@@H](CCC(N)=O)C(=O)N[C@H](CC(N)=O)C(=O)N[C@@H](Cc1c[nH]cn1)C(=O)N[C@@H](Cc1ccccc1)C(=O)N[C@H](C(=O)N[C@@H](CC(=O)O)C(=O)N[C@@H](CCC(=O)O)C(=O)N[C@@H](Cc1ccc(O)cc1)C(=O)O)C(C)C [Ras 19-32(D-Asn)] (H-LTIQLIQ[dN]HFVDEY-OH) | – | 12 | 0.2 | –
SALTIQLIQNHFV [Ras 17-29] | no inhibition | 20 | – | –
